From patent publication US20140193802A1, “IDENTIFICATION OF AN ALTERED THERAPEUTIC SUSCEPTIBILITY TO ANTI-HCMV COMPOUNDS AND OF A RESISTANCE AGAINST ANTI-HCMV COMPOUNDS” (priority 2012, published 2014)
Several values for one entry are separate records, joined by “and”; a condition that tells them apart may be missing. Equal values may be shown once. Read-outs that look alike come from different tables or passages of the source.

Assays:
Assay type in all cases: cell-based, human cytomegalovirus (HCMV)
RV-HG UL56-C325Yrev = assay: GFP-RA, marker transfer revertant; settings: Human betaherpesvirus 5
Method: (§1) HCMV Fluorescence Reduction Assay (GFP-RA)
(§2) The susceptibilities of recombinant HCMV laboratory strains expressing GFP were determined by a GFP-based fluorescence reduction assay. For standard assays, 1.5×10^4 NHDF cells/well were cultured in black 96-well plates (Greiner Bio-One, Germany) and infected with either HCMV-GFP (MOI, 0.1) or RV-HG (MOI, 0.2 to 0.5). After virus adsorption, the virus inoculum was replaced with 200 μl fresh medium. Thereafter, 100 μl medium containing the test compounds was added to wells of horizontal row G, followed by serial 3-fold dilutions up to row A. All drug concentrations were tested at least in duplicate. Wells of the horizontal row H served as the virus control. Plates were incubated at 37° C. for 7 days. The medium was replaced by 200 μl PBS, and GFP units (GFPU) were determined by a charge-coupled-device-camera-based fluorescence detector (FluoBox; Bayer Technology Services GmbH, Leverkusen, Germany), which captures 96 images simultaneously. Drug effects were calculated as a percentage of reduction in GFPU in the presence of each drug concentration compared to the GFPU determined in the absence of drug. EC50 and EC90 values (drug concentrations producing 50% and 90% reduction in GFPU) were calculated using nonlinear regression curve fit with a variable slope. GraphPad Prism 3.02 or 4.0 software (GraphPad Software Inc., La Jolla, Calif.) was used for all analyses.
(§3) The HCMV AD169-derived bacterial artificial chromosome (BAC) pHG served as the backbone for the construction of the mutant viruses. The markerless introduction of point mutations into pHG was done using a two-step recombination protocol according to the en passant method. Briefly, a recombination fragment containing the I-SceI-AphAI cassette from plasmid pEPKan-S was obtained by PCR using primers containing ˜60 bp of homology to the intended integration site in ORF UL56 of BAC pHG and ˜20 bp specific for pEPKan-S. This fragment was electroporated into Escherichia coli GS1783 that harbored the pHG BAC. […] After successful kanamycin selection, all non-HCMV sequences were removed by an intrabacterial ISceI digest and a subsequent second Red recombination, resulting in the scarless repair of the mutated UL56 gene in the background of BAC pHG. The integrity of the generated BACs was confirmed by restriction enzyme digestion and sequencing. To reconstitute virus mutants, the recombinant BACs were transfected into permissive MRC5 cells. At least two independent virus clones per mutation were generated and evaluated.

RV-HG UL56-V231L = assay: GFP-RA, marker transfer mutant; settings: for EC50: Human betaherpesvirus 5, RV-HG UL56-V231L, fluorescence reduction assay, mean ± SD, read-out: EC50
Method: as §1, §2, §3

RV-HG UL56-R369S = assay: GFP-RA, marker transfer mutant; settings: for EC50: Human betaherpesvirus 5, RV-HG UL56-R369S, fluorescence reduction assay, mean ± SD, read-out: EC50
Method: as §1, §2, §3

RV-HG UL56-R369M = assay: GFP-RA, marker transfer mutant; settings: for EC50: Human betaherpesvirus 5, RV-HG UL56-R369M, fluorescence reduction assay, mean ± SD, read-out: EC50
Method: as §1, §2, §3

RV-HG UL56-V236M = assay: GFP-RA, marker transfer mutant; settings: for EC50: Human betaherpesvirus 5
Method: as §1, §2, §3

RV-HG UL56-C325Y = assay: GFP-RA, marker transfer mutant; settings: for EC50: Human betaherpesvirus 5
Method: as §1, §2, §3

RV-HG UL56-L241P/R369S = assay: GFP-RA, marker transfer mutant; settings: for EC50: Human betaherpesvirus 5, RV-HG UL56-L241P/R369S, fluorescence reduction assay, mean ± SD, read-out: EC50
Method: as §1, §2, §3

RV-HG UL56-L241P = assay: GFP-RA, marker transfer mutant; settings: for EC50: Human betaherpesvirus 5
Method: as §1, §2, §3

HCMV strain AD169 = assay: HCMV cytopathic effect reduction assay (CPE-RA); settings: Human betaherpesvirus 5, mean ± SD
Method: HCMV Cytopathic Effect Reduction Assay (CPE-RA)
CPE-RAs were performed basically as described elsewhere (HCMV replication assay). In brief, the addition of 2 μl test compound of 50, 5, 0.5, 0.05, 0.005, and 0.0005 mM DMSO stock solutions to 100 μl cell culture medium in duplicate was followed by serial 2-fold dilutions in 96-well microtiter plates. Each well was supplemented with 150 μl of either a suspension of 1×10^4 NHDF cells mixed with cell-free HCMV (multiplicity of infection (MOI), 0.03) or a suspension of 1×10^4 to 3×10^4 HCMV-infected and uninfected NHDF cells (MOI, 0.001 to 0.002). Non-infected and non-treated cells served as controls on each plate. Final compound concentrations ranged between 250 and 0.00005 μM. Plates were incubated for 6 to 7 days at 37° C. or until the virus control reached 100% CPE. A mixture containing 20% Giemsa stain (Merck) and 5% formalin solution (Merck) was added to the wells for fixation and staining. After extensive washing, plates were dried at 56° C. followed by visual evaluation using an overhead microscope (plaque magnifier; Tecnorama Zürich). Each assay was performed at least in triplicate, and standard deviations were calculated. The assay plate data were used to calculate the EC50 (CPE-RA), i.e., the concentration of drug that inhibits the CPE by 50% compared with an untreated virus-infected control.

Row | SMILES | EC50 (RV-HG UL56-C325Yrev; RV-HG UL56-C325Yrev, fluorescence reduction assay, mean ± SD, read-out: EC50) [nM] | EC50 (RV-HG UL56-V231L) [nM] | Resistance index (RI) = EC50 indicated RV-HG mutant/EC50 RV-HG wt (RV-HG UL56-V231L; RV-HG UL56-V231L vs RV-HG wt) | EC50 (RV-HG UL56-R369S) [nM] | Resistance index (RI) = EC50 indicated RV-HG mutant/EC50 RV-HG wt (RV-HG UL56-R369S; RV-HG UL56-R369S vs RV-HG wt) | EC50 (RV-HG UL56-R369M) [nM] | Resistance index (RI) = EC50 indicated RV-HG mutant/EC50 RV-HG wt (RV-HG UL56-R369M; RV-HG UL56-R369M vs RV-HG wt) | EC50 (RV-HG UL56-V236M; RV-HG UL56-V236M, fluorescence reduction assay, mean ± SD, read-out: EC50) [nM] | Resistance index (RI) = EC50 indicated RV-HG mutant/EC50 RV-HG wt (RV-HG UL56-V236M; RV-HG UL56-V236M vs RV-HG wt) | EC50 (RV-HG UL56-C325Y; RV-HG UL56-C325Y, fluorescence reduction assay, mean ± SD, read-out: EC50) [nM] | Resistance index (RI) = EC50 indicated RV-HG mutant/EC50 RV-HG wt (RV-HG UL56-C325Y; RV-HG UL56-C325Y vs RV-HG wt) | EC50 (RV-HG UL56-L241P/R369S) [nM] | Resistance index (RI) = EC50 indicated RV-HG mutant/EC50 RV-HG wt (RV-HG UL56-L241P/R369S; RV-HG UL56-L241P/R369S vs RV-HG wt) | EC50 (RV-HG UL56-L241P; RV-HG UL56-L241P, fluorescence reduction assay, mean ± SD, read-out: EC50) [nM] | Resistance index (RI) = EC50 indicated RV-HG mutant/EC50 RV-HG wt (RV-HG UL56-L241P; RV-HG UL56-L241P vs RV-HG wt) | EC50 (HCMV strain AD169) [nM] | EC50 (RV-HG UL56-C325Yrev) [nM] | EC50 (RV-HG UL56-V236M) [nM] | EC50 (RV-HG UL56-C325Y) [nM] | EC50 (RV-HG UL56-L241P) [nM]
1 | COc1cccc(N2CCN(C3=Nc4c(F)cccc4[C@H](CC(=O)O)N3c3cc(C(F)(F)F)ccc3OC)CC2)c1 [Letermovir, (S)-{8-fluoro-2-[4-(3-methoxyphenyl)-1-piperazinyl]-3-[2-methoxy-5-(trifluoromethyl)phenyl]-3,4-dihydro-4-quinazolinyl}acetic acid] | 3.9 ± 0.9 | 20 ± 4.7 | 5 | 140 ± 70 | ~38 and 48 | 40 ± 15 | 13 | 70 ± 20 | 24 | 26400 ± 8500 | 8910 | 5260 | 1776 | 680 ± 240 | ~160 and 221 | 5.6 ± 1.6 |  |  |  | 
2 | Nc1nc(O)c2ncn(COC(CO)CO)c2n1 [Ganciclovir] |  | 720 ± 240 |  | 1960 ± 1090 |  | 1260 ± 640 |  |  |  |  |  | 2860 ± 1160 |  |  |  | 3400 ± 1500 | 2830 ± 810 | 1560 ± 330 | 2110 ± 710 | 2110 ± 770
